Results published in PMC4053473 (Molecular cancer therapeutics, 2009).
Where no end group is shown, it is not given here.

Experiments:
in vivo = conditions: SCID, mouse, iv, 5 uCi, total radioactivity
H2009 cells [1] = target: T1, H2009 cells (Homo sapiens, UniProt P06756+P18564); assay: Cellular uptake of labeled peptide by confocal/fluorescence microscopy; assay type: cell-based; conditions: for cellular uptake of peptide-Qdot conjugate (fluorescent/confocal microscopy): 20 nmol/L SAQdot605 conjugate, 10 min incubation
T1 sequence (P06756 31-1048): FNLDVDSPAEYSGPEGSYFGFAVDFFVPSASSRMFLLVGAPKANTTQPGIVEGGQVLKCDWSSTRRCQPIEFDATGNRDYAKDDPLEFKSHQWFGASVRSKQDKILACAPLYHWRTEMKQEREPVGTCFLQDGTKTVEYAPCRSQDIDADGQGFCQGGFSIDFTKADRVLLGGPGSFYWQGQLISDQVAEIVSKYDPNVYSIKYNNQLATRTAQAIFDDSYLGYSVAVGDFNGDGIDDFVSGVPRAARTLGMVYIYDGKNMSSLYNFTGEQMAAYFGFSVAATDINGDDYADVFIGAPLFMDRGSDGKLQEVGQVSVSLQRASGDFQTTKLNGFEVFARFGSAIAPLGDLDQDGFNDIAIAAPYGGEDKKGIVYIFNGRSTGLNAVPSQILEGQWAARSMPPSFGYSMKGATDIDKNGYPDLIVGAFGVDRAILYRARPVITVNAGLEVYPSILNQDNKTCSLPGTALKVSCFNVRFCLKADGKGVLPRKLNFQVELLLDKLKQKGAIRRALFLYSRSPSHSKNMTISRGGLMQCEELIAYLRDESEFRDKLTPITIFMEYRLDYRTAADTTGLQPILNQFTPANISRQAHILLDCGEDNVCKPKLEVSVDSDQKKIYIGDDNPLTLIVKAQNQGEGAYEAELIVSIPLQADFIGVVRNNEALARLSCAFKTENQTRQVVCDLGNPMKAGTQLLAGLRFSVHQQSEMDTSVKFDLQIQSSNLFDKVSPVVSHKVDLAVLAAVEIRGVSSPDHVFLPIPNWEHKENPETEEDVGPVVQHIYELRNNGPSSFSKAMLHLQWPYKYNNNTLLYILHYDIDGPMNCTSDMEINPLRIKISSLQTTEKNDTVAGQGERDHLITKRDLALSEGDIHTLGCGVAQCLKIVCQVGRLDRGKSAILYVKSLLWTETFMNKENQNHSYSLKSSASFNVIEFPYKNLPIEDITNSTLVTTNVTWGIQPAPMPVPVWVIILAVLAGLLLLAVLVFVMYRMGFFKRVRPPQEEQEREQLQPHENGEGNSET
T1 sequence (P18564 22-788): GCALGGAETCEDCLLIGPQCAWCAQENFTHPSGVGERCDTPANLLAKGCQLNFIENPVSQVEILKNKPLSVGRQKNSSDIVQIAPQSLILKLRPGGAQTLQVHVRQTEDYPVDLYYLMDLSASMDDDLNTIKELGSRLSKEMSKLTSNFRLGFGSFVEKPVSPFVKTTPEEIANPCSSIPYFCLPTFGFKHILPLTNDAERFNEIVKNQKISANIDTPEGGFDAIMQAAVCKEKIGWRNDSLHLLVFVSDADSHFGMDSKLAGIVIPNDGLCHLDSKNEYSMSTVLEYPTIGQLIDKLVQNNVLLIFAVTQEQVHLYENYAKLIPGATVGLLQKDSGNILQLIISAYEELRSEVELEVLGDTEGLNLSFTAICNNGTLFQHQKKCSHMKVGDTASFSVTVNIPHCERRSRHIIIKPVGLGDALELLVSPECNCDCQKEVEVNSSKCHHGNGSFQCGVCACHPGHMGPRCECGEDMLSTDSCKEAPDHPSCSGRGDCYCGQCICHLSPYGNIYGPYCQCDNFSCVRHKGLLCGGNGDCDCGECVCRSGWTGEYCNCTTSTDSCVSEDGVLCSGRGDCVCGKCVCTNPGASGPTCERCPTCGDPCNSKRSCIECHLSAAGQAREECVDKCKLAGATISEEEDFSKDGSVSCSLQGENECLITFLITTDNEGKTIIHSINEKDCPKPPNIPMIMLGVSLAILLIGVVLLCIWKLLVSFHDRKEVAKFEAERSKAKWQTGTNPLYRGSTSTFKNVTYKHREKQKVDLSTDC

αvβ6 = conditions: cited from earlier work
H2009 cells [2] = target: T1, H2009 cells; assay: Peptide blocking of cognate H2009.1 phage uptake on H2009 cells; assay type: cell-based; conditions: Fig. 2B, 2D, Supplementary Data

Compound | cellular uptake of peptide-Qdot conjugate (fluorescent/confocal microscopy) (H2009 cells [1]) | ability to block phage uptake / binding affinity for H2009 cells (in words) (H2009 cells [2]) | also measured
CC(C)C[C@H](NC(=O)[C@H](CCC(N)=O)NC(=O)[C@H](CCCNC(=N)N)NC(=O)[C@H](CC(C)C)NC(=O)[C@@H](NC(=O)[C@H](C)NC(=O)[C@H](CC(C)C)NC(=O)[C@H](CC(=O)O)NC(=O)CNC(=O)[C@@H](N)CCCNC(=N)N)[C@@H](C)O)C(=O)NCCOCCOCCOCCOCCOCCOCCOCCOCCOCCOCCOCCOCCC(=O)N[C@@H](CSC1CC(=O)N(CCC(=O)NCCCC[C@H](NC(=O)CCN2C(=O)CC(SC[C@H](NC(=O)CCOCCOCCOCCOCCOCCOCCOCCOCCOCCOCCOCCOCCNC(=O)[C@H](CC(C)C)NC(=O)[C@H](CCC(N)=O)NC(=O)[C@H](CCCNC(=N)N)NC(=O)[C@H](CC(C)C)NC(=O)[C@@H](NC(=O)[C@H](C)NC(=O)[C@H](CC(C)C)NC(=O)[C@H](CC(=O)O)NC(=O)CNC(=O)[C@@H](N)CCCNC(=N)N)[C@@H](C)O)C(N)=O)C2=O)C(=O)NCCCC[C@H](NC(=O)[C@H](CCCCNC(=O)CCN2C(=O)CC(SC[C@H](NC(=O)CCOCCOCCOCCOCCOCCOCCOCCOCCOCCOCCOCCOCCNC(=O)[C@H](CC(C)C)NC(=O)[C@H](CCC(N)=O)NC(=O)[C@H](CCCNC(=N)N)NC(=O)[C@H](CC(C)C)NC(=O)[C@@H](NC(=O)[C@H](C)NC(=O)[C@H](CC(C)C)NC(=O)[C@H](CC(=O)O)NC(=O)CNC(=O)[C@@H](N)CCCNC(=N)N)[C@@H](C)O)C(N)=O)C2=O)NC(=O)CCN2C(=O)CC(SC[C@H](NC(=O)CCOCCOCCOCCOCCOCCOCCOCCOCCOCCOCCOCCOCCNC(=O)[C@H](CC(C)C)NC(=O)[C@H](CCC(N)=O)NC(=O)[C@H](CCCNC(=N)N)NC(=O)[C@H](CC(C)C)NC(=O)[C@@H](NC(=O)[C@H](C)NC(=O)[C@H](CC(C)C)NC(=O)[C@H](CC(=O)O)NC(=O)CNC(=O)[C@@H](N)CCCNC(=N)N)[C@@H](C)O)C(N)=O)C2=O)C(=O)N[C@@H](CSC2CC(=O)N(CCNC(=O)CN3CCN(CC(=O)O)CCN(CC(=O)O)CCN(CC(=O)O)CC3)C2=O)C(=O)NCCC(=O)O)C1=O)C(N)=O (stereo partly shown) [111In-labeled H2009.1 peptide, metal not drawn] |  |  | tissue uptake at 4 h (in vivo): 0.84 ± 0.11 %ID/g
GFTTGRRGDLATIHGMNPF [A20LAP] |  |  | affinity for αvβ6 (αvβ6): low nanomolar range
YAAWPASGAWTGTAPC-SAGT [H1299.2-Qdot conjugate] | no uptake |  | localization of β6 integrin after treatment with peptide-Qdot conjugate (H2009 cells [1]; 10-min incubation, fixed, permeabilized, stained for β6): β6 remains localized on the cell surface

Further lines, with some results ahead:

cellular uptake of peptide-Qdot conjugate (fluorescent/confocal microscopy) (H2009 cells [1]) | ability to block phage uptake / binding affinity for H2009 cells (in words) (H2009 cells [2]) | Compound | also measured
No uptake |  | DALRLQGTLR [scrambled H2009.1 peptide] | 
 | retains full activity | RGDLATL [H2009.1 7-mer peptide] | 
 | significantly reduced affinity | RGDLATLRQL-OH | 
